15 compounds from patent US4151280A, “Pyrroloquinoxalines” (Roussel Uclaf, priority 1977, dated 1979) can be followed below.

The assay has as its system passive cutaneous anaphylaxis. As to the kind of experiment: Passive cutaneous anaphylaxis (PCA) in rats.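 As to all read-outs here: male rats, challenged with antigen plus Evans blue three days post sensitization, killed 30 min later, dorsal skin bluing graded on a five point scale, summed over four sites.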 The format is in vivo. The following applies: dosed immediately prior to intravenous challenge, rats sensitized intradermally with anti-ovalbumen antiserum; for ED50: Rattus norvegicus.
Setting [1] is: po, read-out: ED 50 p.o. (dose of drug giving 50% inhibition), p.o.
Setting [2] is: read-out: ED 50 i.v. (dose of drug giving 50% inhibition), i.v.

Like-named read-outs stand apart in the source and are kept apart here.

Procedure: Cutaneous anaphylaxis can be induced in rats by intradermal (ID) sensitization with antiserum followed three days later by systemic challenge with antigen. Evans blue dye injected with the antigen is used as a marker to assess the severity of the local response. […] Brown: Pergamon Press: --male rats weighing 180-220 grams are used in groups of seven.
Preparation of Antigen for Sensitization (Alum precipitated ovalbumen)
Wash 120 grams of Al(OH)3 in 140 ml of saline (use of a macerater facilitates mixing).
Centrifuge at 3,000 r.p.m. for about 10 minutes.
Resuspend the precipiate with 300 ml of albumen egg powder (1.3 mg/ml) in saline and allow to stand for 30 minutes.
Centrifuge at 3,000 r.p.m. for 10 minutes.
Weigh the wet precipitate and to each gram weight add 1 ml of saline. Store in refrigerator (Quantity sufficient for 60 rats for a 3 day sensitization program).
Preparation of Antiserum (anti-ovalbumen)
1 ml of the alum precipitated ovalbumen was injected subcutaneously into rats weighing 180-200 grams on days 0,2,4. The rats were bled on day 14 either by cardiac puncture or via the dorsal abdominal aorta. Equal quantities of serum from each animal were pooled and thoroughly mixed and 2 ml aliquots were stored at -20° C. in plastic tubes.
The animals were then left for a period of three days to develop sensitization.
The injections were speeded up by using an automatic 1 ml self-filling glass syringe. The "challenged" rats were killed after 30 minutes, usually pithed) and their skin on the dorsal surface was removed. The degree and area of blueing, proportional to the anaphylactic reaction was assessed on a five point scoring system.
Total scores for sites 1,2,3 and 4=X
2. mean value of X for each group=X

As for “5-n-butyl-7-(and 8)-nitro-4,5-dihydro-4-oxo-pyrrolo[1,2-a]quinoxaline-2-carboxylic acid [23(c)]”, the “ED 50 i.v. (dose of drug giving 50% inhibition)” value (i.v.) amounted to 0.025 mg/kg. Further, the “ED 50 p.o. (dose of drug giving 50% inhibition)” value (p.o.) is reported as 0.26 mg/kg.

As for `CCn1c(=O)c2cc(C(=O)O)cn2c2cc(Cl)ccc21` [24(d), 8-chloro-5-ethyl-4,5-dihydro-4-oxo-pyrrolo[1,2-a]quinoxaline-2-carboxylic acid], the ED50 worked out at 0.29 mg/kg under setting [1] and 0.035 mg/kg under setting [2].

In the case of `CCOC(=O)c1cc2c(=O)n(C)c3ccccc3n2c1` [Example 1, ethyl 5-methyl-4,5-dihydro-4-oxo-pyrrolo[1,2-a]quinoxaline-2-carboxylate], the ED50 under setting [1] was 7 mg/kg.

`CCCCn1c(=O)c2cc(C(=O)OCC)cn2c2ccccc21` [Example 5, ethyl 5-n-butyl-4,5-dihydro-4-oxo-pyrrolo[1,2-a]quinoxaline-2-carboxylate]: the ED50 under setting [1] came to 4.1 mg/kg.

Turning to `Cn1c(=O)c2cc(C(=O)O)cn2c2ccccc21` [Example 12, 5-methyl-4,5-dihydro-4-oxo-pyrrolo[1,2-a]quinoxaline-2-carboxylic acid], the ED50 under setting [1] was determined as 0.54 mg/kg and the ED50 under setting [2] came to 0.089 mg/kg.

As to `O=C(O)c1cc2c(=O)n(-c3ccccc3)c3ccccc3n2c1` [Example 13, 5-phenyl-4,5-dihydro-4-oxo-pyrrolo[1,2-a]quinoxaline-2-carboxylic acid], the ED50 runs as follows: under setting [1], 19 mg/kg; under setting [2], 1.57 mg/kg.

As for `CCn1c(=O)c2cc(C(=O)O)cn2c2ccccc21` [Example 14, 5-ethyl-4,5-dihydro-4-oxo-pyrrolo[1,2-a]quinoxaline-2-carboxylic acid], the ED50 came to 0.035 mg/kg under setting [1] and 0.026 mg/kg under setting [2].

In the case of `CCCn1c(=O)c2cc(C(=O)O)cn2c2ccccc21` [Example 15, 5-n-propyl-4,5-dihydro-4-oxo-pyrrolo[1,2-a]quinoxaline-2-carboxylic acid], the ED50 is, setting by setting: under setting [1], 0.032 mg/kg; under setting [2], 0.019 mg/kg.

`CCCCn1c(=O)c2cc(C(=O)O)cn2c2ccccc21` [Example 16, 5-n-butyl-4,5-dihydro-4-oxo-pyrrolo[1,2-a]quinoxaline-2-carboxylic acid]: the ED50 under setting [1] stood at 0.058 mg/kg and the ED50 under setting [2] is 0.019 mg/kg.

On to `CCCCCn1c(=O)c2cc(C(=O)O)cn2c2ccccc21` [Example 17, 5-n-pentyl-4,5-dihydro-4-oxo-pyrrolo[1,2-a]quinoxaline-2-carboxylic acid], for which the ED50 is, setting by setting: under setting [1], 0.31 mg/kg; under setting [2], 0.087 mg/kg.

For the compound `CC(C)n1c(=O)c2cc(C(=O)O)cn2c2ccccc21` [Example 18, 5-isopropyl-4,5-dihydro-4-oxo-pyrrolo[1,2-a]quinoxaline-2-carboxylic acid], under setting [2], the ED50 was determined as 0.85 mg/kg.

As for `C=CCn1c(=O)c2cc(C(=O)O)cn2c2ccccc21` [Example 19, 5-allyl-4,5-dihydro-4-oxo-pyrrolo[1,2-a]quinoxaline-2-carboxylic acid], the ED50 turned out to be 0.28 mg/kg under setting [1] and 0.035 mg/kg under setting [2].

For `O=C(O)c1cc2c(=O)n(C3CCCC3)c3ccccc3n2c1` [Example 20, 5-cyclopentyl-4,5-dihydro-4-oxo-pyrrolo[1,2-a]quinoxaline-2-carboxylic acid], under setting [2], the ED50 is 0.37 mg/kg.

For the compound `CCCCn1c(=O)c2cc(C(=O)O)cn2c2cc(Cl)ccc21` [Example 21, 5-n-butyl-8-chloro-4,5-dihydro-4-oxo-pyrrolo[1,2-a]quinoxaline-2-carboxylic acid], the ED50 stood at 0.114 mg/kg under setting [1] and 0.019 mg/kg under setting [2].

With `CCCCn1c(=O)c2cc(C(=O)O)cn2c2cc(Cl)c(Cl)cc21` [Example 22, 5-n-butyl-7,8-dichloro-4,5-dihydro-4-oxo-pyrrolo[1,2-a]quinoxaline-2-carboxylic acid], the ED50 under setting [1] worked out at 0.117 mg/kg and the ED50 under setting [2] was found to be 0.014 mg/kg.
